Test results from article PMC7923178, “Binding of Amyloid β(1–42)-Calmodulin Complexes to Plasma Membrane Lipid Rafts in Cerebellar Granule Neurons Alters Resting Cytosolic Calcium Homeostasis” (International Journal of Molecular Sciences, 2021).

Experiments:
[1] = tested on: L-type calcium channels (LTCCs); assay: LTCC contribution to resting cytosolic calcium (nifedipine-sensitive Fura-2 ratio)
calmodulin (CaM) [2] = assay: Co-immunoprecipitation of CaM with anti-Aβ antibody in CGN lysates; type: binding, rat; settings: CGN lysates treated with 10 mM methyl-β-cyclodextrin 30 min, western blot
neurons = settings: small oligomeric states of the peptide; cited from earlier work
calmodulin (CaM) [3] = assay: Aβ(1–42) binding capacity of CaM in CGN, from western blot quantification of CaM; design: species or system rat; settings: per Petri plate with […] 10^6 CGN cells (56 ± 6 picomoles CaM per plate); Aβ(1–42) largely dimers
mature CGN [4] = assay: Internalization of Aβ(1–42) in mature CGN by fluorescence microscopy; settings: 2 h incubation with 2 µM Aβ in extracellular medium (1.8 μM Aβ(1–42) plus 0.2 μM HiLyte-Fluor555 derivative), 37 °C, 5% CO2, assuming equal internalization rate, 102 cells
mature CGN [5] = assay: Resting cytosolic calcium, Fura-2 ratio (340/380) imaging; type: cell-based, rat; settings: 2 μM, 2–5 h incubation; MLocke's K25 medium; control 160 ± 30 nM
[6] = biological target: purified calmodulin (CaM); settings: previous work, read-out: dissociation constant of the complex with purified CaM; cited from earlier work
Excerpt: Lipid rafts are a primary target in studies of amyloid β (Aβ) cytotoxicity in neurons. Exogenous Aβ peptides bind to lipid rafts, which in turn play a key role in Aβ uptake, leading to the formation of neurotoxic intracellular Aβ aggregates. On the other hand, dysregulation of intracellular calcium homeostasis in neurons has been observed in Alzheimer’s disease (AD). […] In this work, to experim ... || Dysregulation of intracellular calcium homeostasis in neurons is a common metabolic feature in both sporadic and familial forms of AD, which by itself can account for enhanced intraneuronal Aβ production and tau hyperphosphorylation potentiation. […] The ... || (+ 1 further places)

Molecule	difference between the ratio 340/380 in the absence and presence of nifedipine ([1]; CGN non-treated with amyloid β(1–42), nifedipine 2 μM or 10 µM)	blockade of Ca2+ entry in the soma ([1]; nifedipine 10 µM, untreated and Aβ-treated cells)	co-immunoprecipitation of CaM with anti-Aβ(1–42) antibody (calmodulin (CaM) [2])	half-time of internalization in neurons (neurons) [h]	Aβ(1–42) that can be bound by CaM in CGN (calmodulin (CaM) [3])	intracellular (internalized) concentration of Aβ monomers (mature CGN [4]) [nM]	[Ca^2+]i (mature CGN [5]) [nM]	inhibition of LTCC activity ([1]; 2 µM (monomers) in medium, 2 h incubation of mature CGN)	IC50 ([1]; read-out: concentration of internalized Aβ(1–42) dimers that inhibited by 50% the LTCC's activity, internalized dimers after 2 h with 2 µM monomers) [nM]	Kd [6] [nM]
COC(=O)C1=C(C)NC(C)=C(C(=O)OC)C1c1ccccc1[N+](=O)[O-] [nifedipine, Nifedipine]	0.64	totally blocks								
Aβ(1–42): Unlabeled amyloid β(1–42) peptide synthesized and supplied by StabVida			co-immunoprecipitation of CaM with the anti-Aβ(1–42) antibody	12 to 14	up to 120 ± 13 picomoles of Aβ(1–42) /2.5 × 10^6 cells	193 ± 21	71 ± 7	about 50%	< 100	~1
Aβ(25–35): amyloid β peptide fragment 25–35, cited from previous work (GSNKGAIIGLM; Amyloid-beta protein 42; UniProt P05067 696-706, looked up, fragment)										~1
